# Patent US12661398B2, “Combination of a PD-1 antagonist, a VEGFR/FGFR/RET tyrosine kinase inhibitor and a CBP/beta-catenin inhibitor for treating cancer” (Eisai R&D Management Co., Ltd., priority 2019, dated 2026)
# System: mouse Renal cell carcinoma cell line RAG
# Assay: Subcutaneous (s.c.) RAG transplantation model, anti-tumor effect of triple combination (Example 1)
# Assay type: in vivo
# Details: for CR rate: 28 days of administration
# Source text: An Eagle's minimal essential medium (E-MEM) containing 10% fetal bovine serum (FBS) and penicillin/streptomycin (100 unit/mL each) was used to culture a mouse Renal cell carcinoma cell line RAG (ATCC number: CCL-142). Logarithmic growing cells were collected from flasks using Trypsin-EDTA. The suspension of cells was centrifuged to remove the supernatant. Next, Hanks' Balanced Salt Solution (HBSS) was used to prepare a cell suspension having a concentration of 2.5×10^7 cells/mL. The cell suspension was subcutaneously transplanted at a dose of 0.1 mL on the right lateral side of the body of each of 7-week-old mice (BALB/cAnNCrlCrlj, female, Charles River Laboratories Japan Inc.). Eight (8) days after the transplantation, an electronic digital caliper (Digimatic™ Caliper; Mitutoyo Corporation) was used to measure the short and long diameters of a tumor of interest. The following equations were used to calculate the tumor volume TV and RTV. Tumor Volume TV (mm^3)=Long Diameter (mm)×Short Diameter (mm)×Short Diameter (mm)/2 EQ. 1: Relative Tumor Volume RTV=TV on day n/TV on day1 EQ. 2:
# Based on the tumor volumes on the first day of administration, grouping was carried out such that the average values of the tumor volumes were almost the same. A 1 mg/ml solution of lenvatinib was prepared using 3 mM HCl and was orally administered at a dose of 0.2 mL/20 g mouse body weight once daily for 28 days. 0.2 mL of an administration sample containing 1.0 mg/mL of an anti-mouse-PD-1 antibody (Clone: RMP1-14, BioXCell, Catalog #: BE0146), which had been diluted with PBS, was intraperitoneally administered (at a dosage of 200 μg/mouse) twice a week a total of 8 times (day 1, day 4, day 8, day 11, day 15, day 18, day 22, and day 25, with the day of the grouping set to day 1). A 2.5 mg/ml solution of E7386 was prepared using 0.1 M HCl and was orally administered at a dose of 0.2 mL/20 g mouse body weight once daily for 28 days. To the control group, nothing was administered. Each group including 8 mice was used to conduct the experiment. Twice a week (day 1, day 4, day 8, day 11, day 15, day 18, day 22, day 25, and day 29), the respective tumor volumes (TV) were determined for the control group, the lenvatinib administration group, the anti-mouse-PD-1 antibody administration group, lenvatinib+anti-mouse-PD-1 antibody administration group, E7386+lenvatinib administration group and triple combination group. The values obtained by logarithmically transforming the tumor volumes were used to carry out statistical analysis by repeated measured Dunnet's multiple comparison. E7386 is (6S,9aS)-N-benzyl-8-({6-[3-(4-ethylpiperazin-1-yl)azetidin-1-yl]pyridin-2-yl}methyl)-6-(2-fluoro-4-hydroxybenzyl)-4,7-dioxo-2-(prop-2-en-1-yl)hexahydro-2H-pyrazino[2,1-c][1,2,4]triazine-1(6H)-carboxamide.
# [1] = Day 1 (day of grouping, first administration), BALB/c mice
SMILES,CR rate (BALB/c mice),tumor volume (TV) [1] [mm^3],"tumor volume (TV) (Day 4, BALB/c mice) [mm^3]","tumor volume (TV) (Day 8, BALB/c mice) [mm^3]","tumor volume (TV) (Day 11, BALB/c mice) [mm^3]","tumor volume (TV) (Day 15, BALB/c mice) [mm^3]","tumor volume (TV) (Day 18, BALB/c mice) [mm^3]","tumor volume (TV) (Day 22, BALB/c mice) [mm^3]","tumor volume (TV) (Day 25, BALB/c mice) [mm^3]","tumor volume (TV) (Day 29, BALB/c mice) [mm^3]"
"C=CCN1CC(=O)N2[C@@H](Cc3ccc(O)cc3F)C(=O)N(Cc3cccc(N4CC(N5CCN(CC)CC5)C4)n3)C[C@@H]2N1C(=O)NCc1ccccc1 [E7386, (6S,9aS)-N-benzyl-8-({6-[3-(4-ethylpiperazin-1-yl)azetidin-1-yl]pyridin-2-yl}methyl)-6-(2-fluoro-4-hydroxybenzyl)-4,7-dioxo-2-(prop-2-en-1-yl)hexahydro-2H-pyrazino[2,1-c][1,2,4]triazine-1(6H)-carboxamide]",1 out of 8 mice,62,93,148,210,301,408,588,723,923
"COc1cc2nccc(Oc3ccc(NC(=O)NC4CC4)c(Cl)c3)c2cc1C(N)=O [Lenvatinib, 4-[3-chloro-4-(cyclopropylaminocarbonyl)aminophenoxy]-7-methoxy-6-quinolinecarboxamide]",0 out of 8 mice,62,82,102,134,152,175,162,166,151
